Reference: patent US10052330B2, “Substituted pyrido[3,4-b]pyrazines as Syk inhibitors” (HUTCHISON MEDIPHARMA LIMITED, priority 2011, dated 2018)
pIC50: −log10 of the molar value. Like-named read-outs stand apart in the source and are kept apart here.

Key:
Syk kinase = Syk kinase (Homo sapiens, UniProt P43405); assay: Syk kinase enzymatic assay (Kit-Tyr 2 Peptide); format: biochemical
RBL-2H3 cells = assay: IgE-induced Beta-hexosaminidase secretion in RBL-2H3 cells; format: cell-based; conditions: Rattus norvegicus
[1] = 8 concentrations, 1 μM down to 0.0003 μM, upper bound of each range is 'less than', read-out: IC50: Enzymatic Activity (Syk kinase)
[2] = RBL-2H3, RBL-2H3 cells sensitized with SPE-7, stimulated with DNP-BSA, upper bound of each range is 'less than', read-out: IC50, IgE-induced Beta-hexosaminidase secretion

pIC50 (Syk kinase; [1])	SMILES	pIC50 (RBL-2H3 cells; [2])	pIC50 (Syk kinase)	pIC50 (RBL-2H3 cells; RBL-2H3, read-out: IC50, IgE-induced Beta-hexosaminidase secretion)
7.00 to 9.00	O=C(C(F)F)N1CCN(c2ccc(-c3cc4nccnc4c(NC[C@@H]4CNCCO4)n3)cc2)CC1 [Compound 407]	7.00 to 9.00		
6.00 to 7.00	CCc1ccc(-c2cc3nccnc3c(NCC3CCCNC3)n2)cc1 (stereo not drawn) [Compound 45]	6.00 to 7.00		
6.00 to 7.00	O=C1CCC(CNc2nc(-c3ccc(N4CCOCC4)cc3)cc3nccnc23)CN1 (stereo not drawn) [Compound 168]	6.00 to 7.00		
7.00 to 9.00	O=S(=O)(C1CC1)N1CCC(c2ccc(-c3cc4nccnc4c(NC[C@@H]4CNCCO4)n3)cc2)CC1 [Compound 497]	7.00 to 9.00		
7.00 to 9.00	CN(C)c1ccc(-c2cc3nccnc3c(NC[C@H]3CCCNC3)n2)cc1 [Compound 21]	7.00 to 9.00		
6.00 to 7.00	Cc1ccc(-c2cc3nccnc3c(NC[C@H]3CCCNC3)n2)cn1 [Compound 69]	6.00 to 7.00		
6.00 to 7.00	CN(C)C(=O)c1ccc(-c2cc3nccnc3c(NCC3CNCCC3(F)F)n2)cc1 (stereo not drawn) [Compound 304]	7.00 to 9.00		
6.00 to 7.00	COc1ccc(-c2cc3nccnc3c(NC[C@H]3CCCNC3)n2)c(F)c1 [Compound 68]	6.00 to 7.00		
7.00 to 9.00	O=C(C1CC1(F)F)N1CCN(c2ccc(-c3cc4nccnc4c(NC[C@@H]4CNCCO4)n3)cc2)CC1 (stereo partly drawn) [Compound 439]	7.00 to 9.00		
7.00 to 9.00	C[C@H](O)C(=O)N1CCN(c2ccc(-c3cc4nccnc4c(NC[C@@H]4CNCCO4)n3)cc2)CC1 [Compound 408]	6.00 to 7.00		
7.00 to 9.00	OCCOC1CCN(c2ccc(-c3cc4nccnc4c(NC[C@@H]4CNCCO4)n3)cc2)CC1 [Compound 286]	7.00 to 9.00		
7.00 to 9.00	O=C(CC1CC1)N1CCN(c2ccc(-c3cc4nccnc4c(NC[C@@H]4CNCCO4)n3)cc2)CC1 [Compound 403]	6.00 to 7.00		
7.00 to 9.00	COc1ccc(-c2cc3nccnc3c(NC[C@@H]3CNCCO3)n2)cc1F [Compound 136]	7.00 to 9.00		
7.00 to 9.00	CC(C)(C)c1ccc(-c2cc3nccnc3c(NCC3CCCNC3)n2)cc1 (stereo not drawn) [Compound 47]	6.00 to 7.00		
7.00 to 9.00	CC(C)Oc1ccc(-c2cc3nccnc3c(NC[C@H]3CCCNC3)n2)cc1F [Compound 86]	6.00 to 7.00		
7.00 to 9.00	CC(C)COc1ccc(-c2cc3nccnc3c(NCC3CCCNC3)n2)cc1 (stereo not drawn) [Compound 42]	6.00 to 7.00		
7.00 to 9.00	CN(c1ccc(-c2cc3nccnc3c(NCC3CNCCO3)n2)cc1)S(C)(=O)=O (stereo not drawn) [Compound 228]	6.00 to 7.00		
7.00 to 9.00	FC(F)Oc1ccc(-c2cc3nccnc3c(NC[C@H]3CCCNC3)n2)cc1 [Compound 139]	7.00 to 9.00		
7.00 to 9.00	COCCOc1ccc(-c2cc3nccnc3c(NCC3CCCNC3)n2)cc1 (stereo not drawn) [Compound 78]	6.00 to 7.00		
7.00 to 9.00	Nc1ccc(-c2cc3nccnc3c(NCC3CCCNC3)n2)cc1 (stereo not drawn) [Compound 74]	6.00 to 7.00		
7.00 to 9.00	C[C@H]1CN(c2ccc(-c3cc4nccnc4c(NC[C@H]4CNCCC4(F)F)n3)cc2)CCO1 [Compound 397, (R)—N-((4,4-difluoropiperidin-3-yl)methyl)-7-(4-((S)-2-methylmorpholino)phenyl)pyrido[4,3-b]pyrazin-5-amine]	7.00 to 9.00		
7.00 to 9.00	CC(=O)N1CCN(c2ccc(-c3cc4nccnc4c(NC[C@H]4CNCCC4(F)F)n3)cc2)CC1 [Compound 385, (R)-1-(4-(4-(5-((4,4-difluoropiperidin-3-yl)methylamino)pyrido[4,3-b]pyrazin-7-yl)phenyl)piperazin-1-yl)ethanone]	7.00 to 9.00		
7.00 to 9.00	CNC(=O)COc1ccc(-c2cc3nccnc3c(NC[C@@H]3CNCCC3(F)F)n2)cc1 [Compound 388, (S)-2-(4-(5-((4,4-difluoropiperidin-3-yl)methylamino)pyrido[4,3-b]pyrazin-7-yl)phenoxy)-N-methylacetamide]	7.00 to 9.00		
7.00 to 9.00	CS(=O)(=O)N1CCN(c2ccc(-c3cc4nccnc4c(NCC4CNCCC4(F)F)n3)cc2)CC1 (stereo not drawn) [Compound 444]	7.00 to 9.00		
7.00 to 9.00	COc1ccc(-c2cc3nccnc3c(NCC3CCCNC3)n2)cc1F (stereo not drawn) [Compound 19]	7.00 to 9.00		
7.00 to 9.00	O=C([C@@H]1CCCO1)N1CCN(c2ccc(-c3cc4nccnc4c(NC[C@@H]4CNCCO4)n3)cc2)CC1 [Compound 415]	7.00 to 9.00		
6.00 to 7.00	CC(=O)OCCCOc1ccc(-c2cc3nccnc3c(NC[C@@H]3CNCCO3)n2)cc1 [Compound 477, (S)-3-(4-(5-(morpholin-2-ylmethylamino)pyrido[4,3-b]pyrazin-7-yl)phenoxy)propyl acetate]	7.00 to 9.00		
6.00 to 7.00	Fc1ccc(-c2cc3nccnc3c(NCC3CCCNC3)n2)cc1 (stereo not drawn) [Compound 23]	6.00 to 7.00		
7.00 to 9.00	CCC(=O)N1CCN(c2ccc(-c3cc4nccnc4c(NC[C@@H]4CNCCO4)n3)cc2)CC1 [Compound 267]	7.00 to 9.00		

Continued, compound first:

SMILES	pIC50 (Syk kinase; [1])	pIC50 (RBL-2H3 cells; [2])	pIC50 (Syk kinase)	pIC50 (RBL-2H3 cells; RBL-2H3, read-out: IC50, IgE-induced Beta-hexosaminidase secretion)
Cc1cc(-c2cc3nccnc3c(N3CCC4(CCCNC4)C3)n2)ccc1N1CCOCC1 (stereo not drawn) [Compound 110]	7.00 to 9.00	7.00 to 9.00		
CCS(=O)(=O)N1CCO[C@H](CNc2nc(-c3ccc(N4CCOCC4)cc3)cc3nccnc23)C1 [Compound 346]	7.00 to 9.00	7.00 to 9.00		
c1cnc2c(NCc3cc[nH]n3)nc(-c3ccc(N4CCOCC4)cc3)cc2n1 [Compound 162]	6.00 to 7.00	6.00 to 7.00		
CCn1cc(-c2cc3nccnc3c(NCC3CNCCC3(F)F)n2)cn1 (stereo not drawn) [Compound 311]	7.00 to 9.00	7.00 to 9.00		
CN(CCCN)c1nc(-c2ccc(N3CCOCC3)cc2)cc2nccnc12 [Compound 4]	6.00 to 7.00	6.00 to 7.00		
OCCn1cc(-c2cc3nccnc3c(NCC3CNCCC3(F)F)n2)cn1 (stereo not drawn) [Compound 315]	7.00 to 9.00	7.00 to 9.00		
CC(=O)N1CCC(n2cc(-c3cc4nccnc4c(NCC4CNCCC4(F)F)n3)cn2)CC1 (stereo not drawn) [Compound 320]	7.00 to 9.00	7.00 to 9.00		
CS(=O)(=O)N1CCO[C@H](CNc2nc(-c3ccc(N4CCNCC4)cc3)cc3nccnc23)C1 [Compound 462]	7.00 to 9.00	6.00 to 7.00		
CN1CCN(c2ccc(-c3cc4nccnc4c(NCCCN)n3)cc2)CC1 [Compound 186]	7.00 to 9.00	6.00 to 7.00		
FC1(CNc2nc(-c3cnn(C4CCOCC4)c3)cc3nccnc23)CCCNC1 (stereo not drawn) [Compound 290]	7.00 to 9.00	7.00 to 9.00		
O=C(C1CC1)N1CCO[C@H](CNc2nc(-c3ccc(N4CCOCC4)cc3)cc3nccnc23)C1 [Compound 322]	7.00 to 9.00	6.00 to 7.00		
O=C(CF)N1CCN(c2ccc(-c3cc4nccnc4c(NCC4CNCCO4)n3)cc2)CC1 (stereo not drawn) [Compound 424]			7.00 to 9.00	7.00 to 9.00
FC1(F)CCNCC1CNc1nc(-c2cnn(C3CCOCC3)c2)cc2nccnc12 (stereo not drawn) [Compound 314]	7.00 to 9.00	7.00 to 9.00		
CC1CN(c2ccc(-c3cc4nccnc4c(NC[C@@H]4CNCCO4)n3)cc2F)CCO1 (mixture of isomers) [Compound 250]	6.00 to 7.00	7.00 to 9.00		
C[C@@H]1CN(c2ccc(-c3cc4nccnc4c(NC[C@@H]4CNCCO4)n3)cc2F)C[C@H](C)O1 [Compound 247]	6.00 to 7.00	7.00 to 9.00		
CN(C)c1ccc(-c2cc3nccnc3c(N3CC[C@@H](CO)C3)n2)cc1 [Compound 165]	6.00 to 7.00	7.00 to 9.00		
CCS(=O)(=O)N1CCN(c2ccc(-c3cc4nccnc4c(NC[C@@H]4CN(C(C)=O)CCO4)n3)cc2)CC1 [Compound 510]	7.00 to 9.00	6.00 to 7.00		
CC(=O)N1CCN(c2ccc(-c3cc4nccnc4c(NCC4CNCCC4(F)F)n3)cn2)CC1 (stereo not drawn) [Compound 316]	7.00 to 9.00	7.00 to 9.00		
CN1CCN(c2ccc(-c3cc4nccnc4c(NC[C@@H]4CNCCO4)n3)cn2)CC1 [Compound 259]	6.00 to 7.00	6.00 to 7.00		
CC(Nc1nc(-c2ccc(N3CCOCC3)c(F)c2)cc2nccnc12)C1CNCCO1 (stereo not drawn) [Compound 278]	7.00 to 9.00	7.00 to 9.00		
NS(=O)(=O)N1CCO[C@H](CNc2nc(-c3ccc(N4CCOCC4)cc3)cc3nccnc23)C1 [Compound 333]	7.00 to 9.00	7.00 to 9.00		
NC(=O)NC[C@@H]1CCN(c2nc(-c3ccc(N4CCOCC4)cc3)cc3nccnc23)C1 [Compound 150, (S)-1-((1-(7-(4-morpholinophenyl)pyrido[4,3-b]pyrazin-5-yl)pyrrolidin-3-yl)methyl)urea]	6.00 to 7.00	6.00 to 7.00		
